Measured values published in publication PMC12339982 (Nature Communications, 2025).
Substitutions are numbered along the chain they refer to.

How the values were obtained:
TauT F58A mutant = target: T1, TauT F58A mutant (Homo sapiens, UniProt P31641, F58A); assay: MST binding, TauT F58A; conditions: mean ± s.e.m., n=3
T1 sequence (P31641 1-620 F58A): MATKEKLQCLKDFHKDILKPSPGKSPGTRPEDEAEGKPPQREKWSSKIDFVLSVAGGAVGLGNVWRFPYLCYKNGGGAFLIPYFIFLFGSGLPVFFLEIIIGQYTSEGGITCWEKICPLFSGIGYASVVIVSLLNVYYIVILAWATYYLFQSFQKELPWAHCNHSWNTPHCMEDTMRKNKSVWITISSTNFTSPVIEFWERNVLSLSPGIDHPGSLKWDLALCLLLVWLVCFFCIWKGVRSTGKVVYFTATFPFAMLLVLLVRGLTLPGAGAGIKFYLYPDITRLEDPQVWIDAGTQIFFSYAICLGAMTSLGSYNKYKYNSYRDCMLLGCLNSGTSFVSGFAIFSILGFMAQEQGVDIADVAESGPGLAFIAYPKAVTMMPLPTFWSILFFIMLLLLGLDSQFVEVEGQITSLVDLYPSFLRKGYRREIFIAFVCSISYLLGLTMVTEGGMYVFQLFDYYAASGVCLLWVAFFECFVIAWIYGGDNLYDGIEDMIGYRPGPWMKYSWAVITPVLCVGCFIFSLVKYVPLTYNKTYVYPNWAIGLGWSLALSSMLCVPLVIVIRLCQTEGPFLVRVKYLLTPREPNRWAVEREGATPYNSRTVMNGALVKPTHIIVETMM

TauT^WT and variants [1] = target: T2, TauT^WT and variants (Homo sapiens, UniProt P31641, L134C); assay: [3H]taurine uptake; assay type: cell-based; conditions: mutation Leu134Cys
T2 sequence (P31641 1-620 L134C): T1 sequence (P31641 1-620 F58A) with A58F, L134C

TauT^WT and variants [2] = assay: [3H]taurine uptake; assay type: cell-based, human
[3] = target: T3, human wild type TauT (TauT^WT) (Homo sapiens, UniProt P31641); assay: [3H]taurine uptake inhibition assay in HEK293T cells overexpressing TauT^WT; assay type: cell-based; conditions: result in words
T3 sequence (P31641 1-620): T1 sequence (P31641 1-620 F58A) with A58F

TauT L306A mutant = target: T4, TauT L306A mutant (Homo sapiens, UniProt P31641, L306A); assay: MST binding, TauT L306A; conditions: mean ± s.e.m., n=3
T4 sequence (P31641 1-620 L306A): T1 sequence (P31641 1-620 F58A) with A58F, L306A

TauT^WT and variants [4] = target: T2, TauT^WT and variants; assay: GAA uptake assay; assay type: cell-based; conditions: mutation Leu134Cys
TauT^WT and variants [5] = assay: GAA uptake assay; assay type: cell-based, human; conditions: amino acid substitutions in Gly57, Phe58, Leu306

Row | transport activity of taurine (TauT^WT and variants [1]) | inhibition of the uptake activity of TauT [3] | Kd (MST) (TauT L306A mutant) | transport activity of GAA (TauT^WT and variants [4]) | Compound | Kd (MST) (TauT F58A mutant) | taurine transport activity (TauT^WT and variants [2]; Asn63, Ser301, Asn333 substituted with alanine or aspartate (Na1 site)) | transport activity for taurine (TauT^WT and variants [2]; amino acid substitutions in Gly57, Phe58, Leu306) | taurine transport activity (TauT^WT and variants [2]; mutations in Asp401 and Ser402 (Na2 site)) | transport activity for GAA (TauT^WT and variants [5])
1 | significantly lower transport activity | – | – | – | NCCS(=O)(=O)O [Taurine, taurine] | reduced the taurine binding to varying extents | complete loss of function | decrease in transport activity | weaken the substrate transport function | –
2 | – | potent inhibitory effects | drastic loss of GAA binding affinity | greater transport activity | [H]/N=C(/N)NCC(=O)O [GAA, guanidinoacetate] | – | – | – | – | decrease in transport activity
3 | – | potent inhibitory effects | – | – | NCCCC(=O)O [GABA, γ-aminobutyric acid] | – | – | – | – | –
